Measurements from US5144059A, “Catecholamine esters” (priority 1989, dated 1992).
Several values for one entry are separate records, joined by “and”; a condition that tells them apart may be missing. Equal entries are not always repeated.

Assays:
[1] = test system: Intraocular pressure in rabbit; experiment: Intraocular pressure in rabbit after topical application; assay type: in vivo; details: 0.1% solution topical; for Intraocular pressure: individual animal, Hydrochloride; for Intraocular pressure, mean: N=6
[2] = Permeability across excised pig cornea (perfusion method, HPLC); assay type: in vitro ADME; details: for Amount of unchanged product in the receiving compartment (permeability rate): 2.5 mM in donor, GBR pH 7.65, 34-35 °C; for Release of epinephrine inside the eye: conclusion from the excised cornea experiment; for Amount of epinephrine released by 2B223 in the receiving compartment: released by 2B223 (2450 nMoles in donor); for Amount of epinephrine released by 2B852 in the receiving compartment: released by 2B852 (2770 nMoles in donor)
Procedure: Perfusion method: pig corneas have been removed with about 2 mm of sclera and set on a perfusion cell.
The receiving compartment and that of the donor were respectively filled with 6 ml and 1 ml of GBR solution (Glutathione Bicarbonate Ringer's solution) preheated at 35° C.
During the analysis the cells were maintained at a temperature of 34°-35° C. with a thermostat (REACTI-THERM, Pierce). Besides, the solutions in the 2 compartments were maintained under a flow of 95% O2 --5% CO2 mixture.
The GBR solution in the donor compartment was then substituted with 1 ml of GBR solution saturated with O2 --CO2 containing, 2B223 or 2B852 (2.5 mM).
Aliquots of 600 μl were withdrawn from the receiving compartment every 40 minutes for a period of 4 hours and immediately replaced with an equal volume of GBR.
A solution of GBR with diclofenac (0.1%) maintained at the same conditions (temperature 34°-35° C. and gassed with (O2 --CO2) acted as control aliquots from the control were withdrawn at the same times.
The samples and the controls at various times were immediately analyzed by HPLC.
Solutions: Glutathione Bicarbonate Ringer's (GBR), pH 7.65. The GBR solution was prepared in two parts: part I was composed of sodium chloride 12.4 g/l, potassium chloride 0.716 g/l, sodium dihydrogen phosphate monohydrate 0.206 g/l and sodium bicarbonate 4.908 g/l while part II was composed of calcium chloride 0.230 g/l, magnesium chloride 0.318 g/l, glucose 1.8 g/l and oxidized glutathioine 0.184 g/l. Both parts were stored cold and utilized within two weeks.
Equal volumes of part I and II were mixed prior to use.

[3] = test system: Ocular Hypertension in Man; experiment: Ocular pressure in patients with non-severe ocular hypertension after instillation; assay type: in vivo; details: one drop 0.1% solution; for Ocular pressure: individual patient, Hydrochloride; for Ocular pressure, mean: N=4
Procedure: 1 drop of a 0.1% solution of 2B223 or 2B852, respectively, was instilled into each eye of 8 patients (males) suffering from non-severe ocular hypertension. Ocular pressure was tested at time 0, and 30, 120, 180 minutes after the ocular instillation. At same times blood pressure and heart rate were also tested.

[4] = applied topically to the eye; stated as known; cited from earlier work

SMILES	Intraocular pressure ([1]; 1 hour)	Intraocular pressure ([1]; 2 hours)	Intraocular pressure ([1]; 4 hours)	Intraocular pressure ([1]; 8 hours)	Intraocular pressure ([1]; time 0 (baseline))	Intraocular pressure, mean ([1]; 1 hour) [mm Hg]	Intraocular pressure, mean ([1]; 2 hours) [mm Hg]	Intraocular pressure, mean ([1]; 4 hours) [mm Hg]	Intraocular pressure, mean ([1]; 8 hours) [mm Hg]	Intraocular pressure, mean ([1]; time 0 (baseline)) [mm Hg]	Amount of unchanged product in the receiving compartment (permeability rate) ([2]; 40 min) [nmol]	Amount of unchanged product in the receiving compartment (permeability rate) ([2]; 80 min) [nmol]	Amount of unchanged product in the receiving compartment (permeability rate) ([2]; 120 min) [nmol]	Amount of unchanged product in the receiving compartment (permeability rate) ([2]; 160 min) [nmol]	Release of epinephrine inside the eye [2]	Ocular pressure ([3]; left eye, 0 min (baseline))	Ocular pressure ([3]; left eye, 30 min)	Ocular pressure ([3]; left eye, 120 min)	Ocular pressure ([3]; left eye, 180 min)	Ocular pressure ([3]; right eye, 0 min (baseline))	also measured
CNCC(O)c1ccc(OC(=O)N(C)C)c(OC(=O)c2ccc(C)cc2)c1.Cl (centres unmarked) [2B223, 3-O-(4-Methylbenzoyl)-4-O-(N,N-Dimethylcarbamoyl)adrenaline Hydrochloride]	12 mm Hg and 13 mm Hg and 11 mm Hg	13 mm Hg and 14 mm Hg	14 mm Hg and 15 mm Hg and 13 mm Hg	15 mm Hg and 16 mm Hg and 14 mm Hg	16 mm Hg and 15 mm Hg and 17 mm Hg	12.2	13.3	14.2	15.2	16.0	0.0	1.3	4.1	23.5	epinephrine is released inside the eye	26 mmHg and 25 mmHg	25 mmHg and 23 mmHg	20 mmHg and 22 mmHg	22 mmHg and 24 mmHg and 25 mmHg	27 mmHg and 24 mmHg and 23 mmHg	Ocular pressure ([3]; right eye, 30 min): 24 mmHg and 23 mmHg and 25 mmHg; Ocular pressure ([3]; right eye, 120 min): 22 mmHg and 21 mmHg and 23 mmHg; Ocular pressure ([3]; right eye, 180 min): 23 mmHg and 22 mmHg and 24 mmHg; Ocular pressure, mean ([3]; left eye, 0 min (baseline)): 25.8 mmHg; Ocular pressure, mean ([3]; left eye, 30 min): 24.5 mmHg; Ocular pressure, mean ([3]; left eye, 120 min): 21.5 mmHg; Ocular pressure, mean ([3]; left eye, 180 min): 23.8 mmHg; Ocular pressure, mean ([3]; right eye, 0 min (baseline)): 25.3 mmHg; Ocular pressure, mean ([3]; right eye, 30 min): 24.0 mmHg; Ocular pressure, mean ([3]; right eye, 120 min): 22.3 mmHg; Ocular pressure, mean ([3]; right eye, 180 min): 23.3 mmHg
CNCC(O)c1ccc(OC(=O)N(C)C)c(OC(=O)C(C)C)c1.Cl (centres unmarked) [2B852, 3-O-Isobutyryl-4-O-(N,N-Dimethylcarbamoyl)adrenaline Hydrochloride]	12 mm Hg and 13 mm Hg and 11 mm Hg	13 mm Hg and 14 mm Hg	14 mm Hg and 15 mm Hg	16 mm Hg and 15 mm Hg and 14 mm Hg	15 mm Hg and 16 mm Hg	11.8	13.5	14.3	15.3	15.7	0.0	0.0	0.0	0.0	epinephrine is released inside the eye	27 mmHg and 26 mmHg	26 mmHg and 24 mmHg and 25 mmHg	24 mmHg and 22 mmHg and 25 mmHg	23 mmHg and 25 mmHg	26 mmHg and 25 mmHg and 24 mmHg and 28 mmHg	Ocular pressure ([3]; right eye, 30 min): 25 mmHg and 24 mmHg and 23 mmHg and 26 mmHg; Ocular pressure ([3]; right eye, 120 min): 23 mmHg and 22 mmHg and 24 mmHg; Ocular pressure ([3]; right eye, 180 min): 25 mmHg and 22 mmHg and 23 mmHg and 24 mmHg; Ocular pressure, mean ([3]; left eye, 0 min (baseline)): 26.5 mmHg; Ocular pressure, mean ([3]; left eye, 30 min): 25.3 mmHg; Ocular pressure, mean ([3]; left eye, 120 min): 23.8 mmHg; Ocular pressure, mean ([3]; left eye, 180 min): 23.8 mmHg; Ocular pressure, mean ([3]; right eye, 0 min (baseline)): 25.8 mmHg; Ocular pressure, mean ([3]; right eye, 30 min): 24.0 mmHg; Ocular pressure, mean ([3]; right eye, 120 min): 23.0 mmHg; Ocular pressure, mean ([3]; right eye, 180 min): 23.5 mmHg
CNC[C@H](O)c1ccc(O)c(O)c1 [EPINEPHRINE, epinephrine, reference compound]																					Amount of epinephrine released by 2B223 in the receiving compartment ([2]; 40 min): 15.8 nmol; Amount of epinephrine released by 2B223 in the receiving compartment ([2]; 80 min): 21.7 nmol; Amount of epinephrine released by 2B223 in the receiving compartment ([2]; 120 min): 23.4 nmol; Amount of epinephrine released by 2B223 in the receiving compartment ([2]; 160 min): 26.2 nmol; Amount of epinephrine released by 2B852 in the receiving compartment ([2]; 40 min): 14.5 nmol; Amount of epinephrine released by 2B852 in the receiving compartment ([2]; 80 min): 23.7 nmol; Amount of epinephrine released by 2B852 in the receiving compartment ([2]; 120 min): 28.9 nmol; Amount of epinephrine released by 2B852 in the receiving compartment ([2]; 160 min): 32.0 nmol; Permeation of cornea barrier [4]: does not permeate cornea barrier
